Measured values from PMC10046961, “High-Throughput Screening Assay for Detecting Drug-Induced Changes in Synchronized Neuronal Oscillations and Potential Seizure Risk Based on Ca^2+ Fluorescence Measurements in Human Induced Pluripotent Stem Cell (hiPSC)-Derived Neuronal 2D and 3D Cultures” (Cells, 2023).
Like-named read-outs stand apart in the source and are kept apart here.

Columns and labels:
[1] = system: hiPSC-derived neurons co-cultured with human primary astrocytes in 2D; test: Ca2+ transient oscillation assay (FDSS), 2D co-culture; assay type: cell-based; conditions: for activation at 0.37 µM / activation at 1.11 µM / activation at 3.33 µM / activation at 10 µM / activation at 3.7 µM / activation at 11.11 µM / activation at 33.33 µM / activation at 100 µM: Homo sapiens, 1 h, 60 min
Outline: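 hiPSC-derived excitatory neurons (CW50065, Quick-Neuron EX-SeV) co-cultured with human primary astrocytes at 4:1 (10,000:2500 cells per well). Cal-520-loaded cells in HBSS with 2 mM CaCl2 and 10 mM HEPES were pretreated with 0.04% DMSO.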

[2] = humans; cited from earlier work
[3] = cited from earlier work
[4] = system: hiPSC-derived neurons co-cultured with human primary astrocytes in 3D; test: Ca2+ transient oscillation assay (FDSS), 3D spheroids; assay type: cell-based; conditions: 60 min
Outline: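 Fura-2 fluorescence was read twice for 20 min each: a baseline 10 min after 0.04% DMSO, and again 60 min after compound addition at nominal final concentration. The 3D co-cultures (1:1 hiPSC neurons from a donor and human astrocytes, 8000 each) matured 5 weeks in BrainPhys medium after a 1-week differentiation.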

[5] = ref PharmaPendium, cited from earlier work
[6] = read-out: Area under the curve - 2D Mean
[7] = read-out: Peak amplitude - 2D Mean
[8] = read-out: Peak-to-peak interval - 2D Mean
[9] = Table 1, peak plasma concentration in men, free therapeutic Cmax
[10] = Table 2, highest plasma concentration in humans after the therapeutic dose

Cc1ccc(Nc2nccc(N(C)c3ccc4c(C)n(C)nc4c3)n2)cc1S(N)(=O)=O [Pazopanib]
effect on peak number / Ca2+ neuronal oscillations, in words ([1]; 2D format): significantly reduced peak number
activation at 0.37 µM [1, 6]: -1.8%
activation at 0.37 µM ([1]; read-out: Peak Number—2D Mean): -49%
activation at 0.37 µM [1, 7]: -15.8%
activation at 0.37 µM ([1]; read-out: Peak width - 2D Mean): -4.8%
activation at 0.37 µM [1, 8]: 14.6%
activation at 1.11 µM [1, 6]: 7.8%
activation at 1.11 µM ([1]; read-out: Peak Number—2D Mean): 4.4%
activation at 1.11 µM [1, 7]: -3.8%
activation at 1.11 µM ([1]; read-out: Peak width - 2D Mean): 12.6%
activation at 1.11 µM [1, 8]: -2.6%
activation at 3.33 µM [1, 6]: 38.8%
activation at 3.33 µM ([1]; read-out: Peak Number—2D Mean): 11.3%
activation at 3.33 µM [1, 7]: 11.2%
activation at 3.33 µM ([1]; read-out: Peak width - 2D Mean): 27.8%
activation at 3.33 µM [1, 8]: 0.5%
activation at 10 µM [1, 6]: 16.3%
activation at 10 µM ([1]; read-out: Peak Number—2D Mean): 10%
activation at 10 µM [1, 7]: 9.5%
activation at 10 µM ([1]; read-out: Peak width - 2D Mean): 3.7%
activation at 10 µM [1, 8]: 14.2%
crossing of the blood–brain barrier [2]: does not cross the blood–brain barrier
seizure risk in humans [3]: does not have a seizure risk
Area under the curve - 3D Mean ([4]; 0.37 µM): 125.7 % change from baseline
Peak Number—3D Mean ([4]; 0.37 µM): 6.4 % change from baseline
Peak amplitude - 3D Mean ([4]; 0.37 µM): 101.6 % change from baseline
Peak width - 3D Mean ([4]; 0.37 µM): 9.7 % change from baseline
Peak-to-peak interval - 3D Mean ([4]; 0.37 µM): −2.0 % change from baseline
Area under the curve - 3D Mean ([4]; 1.11 µM): 127.9 % change from baseline
Peak Number—3D Mean ([4]; 1.11 µM): −4.2 % change from baseline
Peak amplitude - 3D Mean ([4]; 1.11 µM): 110.2 % change from baseline
Peak width - 3D Mean ([4]; 1.11 µM): 7.7 % change from baseline
Peak-to-peak interval - 3D Mean ([4]; 1.11 µM): 4.1 % change from baseline
Area under the curve - 3D Mean ([4]; 3.33 µM): 116.3 % change from baseline
Peak Number—3D Mean ([4]; 3.33 µM): 0.8 % change from baseline
Peak amplitude - 3D Mean ([4]; 3.33 µM): 107.5 % change from baseline
Peak width - 3D Mean ([4]; 3.33 µM): 4.1 % change from baseline
Peak-to-peak interval - 3D Mean ([4]; 3.33 µM): −3.0 % change from baseline
Area under the curve - 3D Mean ([4]; 10 µM): 117.4 % change from baseline
Peak Number—3D Mean ([4]; 10 µM): −2.0 % change from baseline
Peak amplitude - 3D Mean ([4]; 10 µM): 101.7 % change from baseline
Peak width - 3D Mean ([4]; 10 µM): 8.7 % change from baseline
Peak-to-peak interval - 3D Mean ([4]; 10 µM): 7.5 % change from baseline
Free Cmax [5, 9]: 600 to 1200 nM
Free Cmax [5, 10]: 600 to 1200 nM

CCn1cc(C(=O)O)c(=O)c2cc(F)c(N3CCNCC3)nc21 [Enoxacin]
activation at 0.37 µM [1, 6]: 25.5%
activation at 0.37 µM ([1]; read-out: Peak Number—2D Mean): 1.3%
activation at 0.37 µM [1, 7]: 7.8%
activation at 0.37 µM ([1]; read-out: Peak width - 2D Mean): 18.3%
activation at 0.37 µM [1, 8]: 18%
activation at 1.11 µM [1, 6]: 41%
activation at 1.11 µM ([1]; read-out: Peak Number—2D Mean): 2.3%
activation at 1.11 µM [1, 7]: 5.3%
activation at 1.11 µM ([1]; read-out: Peak width - 2D Mean): 45.8%
activation at 1.11 µM [1, 8]: 1.3%
activation at 3.33 µM [1, 6]: 47.3%
activation at 3.33 µM ([1]; read-out: Peak Number—2D Mean): 5.5%
activation at 3.33 µM [1, 7]: 13.5%
activation at 3.33 µM ([1]; read-out: Peak width - 2D Mean): 39%
activation at 3.33 µM [1, 8]: 12.7%
activation at 10 µM [1, 6]: 49.3%
activation at 10 µM ([1]; read-out: Peak Number—2D Mean): 2%
activation at 10 µM [1, 7]: 11.3%
activation at 10 µM ([1]; read-out: Peak width - 2D Mean): 49%
activation at 10 µM [1, 8]: -3%
Area under the curve - 3D Mean ([4]; 0.37 µM): 115.6 % change from baseline
Peak Number—3D Mean ([4]; 0.37 µM): −16.9 % change from baseline
Peak amplitude - 3D Mean ([4]; 0.37 µM): 106.8 % change from baseline
Peak width - 3D Mean ([4]; 0.37 µM): 3.2 % change from baseline
Peak-to-peak interval - 3D Mean ([4]; 0.37 µM): 30.9 % change from baseline
Area under the curve - 3D Mean ([4]; 1.11 µM): 124.6 % change from baseline
Peak Number—3D Mean ([4]; 1.11 µM): 5.5 % change from baseline
Peak amplitude - 3D Mean ([4]; 1.11 µM): 123.3 % change from baseline
Peak width - 3D Mean ([4]; 1.11 µM): −2.2 % change from baseline
Peak-to-peak interval - 3D Mean ([4]; 1.11 µM): −0.7 % change from baseline
Area under the curve - 3D Mean ([4]; 3.33 µM): 139.4 % change from baseline
Peak Number—3D Mean ([4]; 3.33 µM): 13.2 % change from baseline
Peak amplitude - 3D Mean ([4]; 3.33 µM): 129.6 % change from baseline
Peak width - 3D Mean ([4]; 3.33 µM): 3.0 % change from baseline
Peak-to-peak interval - 3D Mean ([4]; 3.33 µM): −1.3 % change from baseline
Area under the curve - 3D Mean ([4]; 10 µM): 114.6 % change from baseline
Peak Number—3D Mean ([4]; 10 µM): 2.2 % change from baseline
Peak amplitude - 3D Mean ([4]; 10 µM): 116.3 % change from baseline
Peak width - 3D Mean ([4]; 10 µM): −1.1 % change from baseline
Peak-to-peak interval - 3D Mean ([4]; 10 µM): −1.1 % change from baseline
Free Cmax [5, 9]: 1000 to 4000 nM

NC(=O)N1c2ccccc2C=Cc2ccccc21 [Carbamazepine]
activation at 3.7 µM [1, 6]: 31.5%
activation at 3.7 µM ([1]; read-out: Peak Number—2D Mean): -15.3%
activation at 3.7 µM [1, 7]: 16.5%
activation at 3.7 µM ([1]; read-out: Peak width - 2D Mean): 19%
activation at 3.7 µM [1, 8]: 0.8%
activation at 11.11 µM [1, 6]: 62%
activation at 11.11 µM ([1]; read-out: Peak Number—2D Mean): -17%
activation at 11.11 µM [1, 7]: 8.5%
activation at 11.11 µM ([1]; read-out: Peak width - 2D Mean): 66.5%
activation at 11.11 µM [1, 8]: 45.8%
activation at 33.33 µM [1, 6]: -39.7%
activation at 33.33 µM ([1]; read-out: Peak Number—2D Mean): -76.8%
activation at 33.33 µM [1, 7]: -52%
activation at 33.33 µM ([1]; read-out: Peak width - 2D Mean): -36.7%
activation at 33.33 µM [1, 8]: 45%
activation at 100 µM [1, 6]: -100%
activation at 100 µM ([1]; read-out: Peak Number—2D Mean): -100%
activation at 100 µM [1, 7]: -100%
activation at 100 µM ([1]; read-out: Peak width - 2D Mean): -100%
activation at 100 µM [1, 8]: -100%
Area under the curve - 3D Mean ([4]; 3.7 µM): 122.1 % change from baseline
Peak Number—3D Mean ([4]; 3.7 µM): 11.4 % change from baseline
Peak amplitude - 3D Mean ([4]; 3.7 µM): 114.1 % change from baseline
Peak width - 3D Mean ([4]; 3.7 µM): 2.9 % change from baseline
Peak-to-peak interval - 3D Mean ([4]; 3.7 µM): −4.9 % change from baseline
Area under the curve - 3D Mean ([4]; 11.11 µM): 121.7 % change from baseline
Peak Number—3D Mean ([4]; 11.11 µM): 3.9 % change from baseline
Peak amplitude - 3D Mean ([4]; 11.11 µM): 114.1 % change from baseline
Peak width - 3D Mean ([4]; 11.11 µM): 2.8 % change from baseline
Peak-to-peak interval - 3D Mean ([4]; 11.11 µM): 9.5 % change from baseline
Area under the curve - 3D Mean ([4]; 33.33 µM): 107.4 % change from baseline
Peak Number—3D Mean ([4]; 33.33 µM): −19.3 % change from baseline
Peak amplitude - 3D Mean ([4]; 33.33 µM): 93.5 % change from baseline
Peak width - 3D Mean ([4]; 33.33 µM): 5.1 % change from baseline
Peak-to-peak interval - 3D Mean ([4]; 33.33 µM): 33.5 % change from baseline
Area under the curve - 3D Mean ([4]; 100 µM): 173.0 % change from baseline
Peak Number—3D Mean ([4]; 100 µM): −21.5 % change from baseline
Peak amplitude - 3D Mean ([4]; 100 µM): 85.2 % change from baseline
Peak width - 3D Mean ([4]; 100 µM): 43.8 % change from baseline
Peak-to-peak interval - 3D Mean ([4]; 100 µM): 25.1 % change from baseline
Free Cmax [5, 9]: 10000 nM
Free Cmax [5, 10]: 10000 nM
